Data published in patent publication US8470828B2, “Anellated pyridine compounds” (Hoffmann-La Roche Inc., priority 2010, dated 2013).

Tests used:
human D2 receptor = target: T1, human D2 receptor (Homo sapiens, UniProt P14416); test: Radioligand binding to cloned human D2 receptor expressed in HEK-293 EBNA cells ([3H]-spiperone); conditions: HEK293 EBNA cell membranes, approximately 0.7 nM [3H]-spiperone, 1 h at RT
T1 construct: expressed in transfected cells; host or cells: HEK293 EBNA cells, transient transfection; membrane preparation
Description: (§1) HEK293 EBNA cells were transiently transfected with expression plasmids encoding for the human D2 or D3 or for the human 5-HT2A receptor, respectively. The cells were harvested 48 h post-transfection, washed three times with cold PBS and stored at −80° C. prior to use. The pellet was suspended in cold 50 mM Tris-HCl buffer comprising 10 mM EDTA (pH 7.4) and was homogenized with a Polytron (Kinematica A G, Basel, Switzerland) for 20-30 sec at 12.000 rpm. After centrifugation at 48.000×g for 30 min at 4° C., the pellet was resuspended in cold 10 mM Tris-HCl buffer comprising 0.1 mM EDTA (pH 7.4), homogenized, and centrifuged as above. This pellet was further resuspended in a smaller volume of ice cold 10 mM Tris-HCl buffer comprising 0.1 mM EDTA (pH 7.4) and homogenized with a Polytron for 20-30 sec at 12.000 rpm. The protein content of this homogenate was determined with the Bio-Rad (Bradford) Protein Assay (Biorad Laboratories GmbH, München, Germany) according to the instructions of the manufacturer using gamma globulin as the standard. This homogenate was stored at −80° C. in aliquots and thawed immediately prior to use.
(§2) Aliquots of membrane preparations were thawed at RT, resupended in assay buffer (D2, D3: 50 mM Tris-HCl, 120 mM NaCl, 5 mM MgCl2, 1 mM EDTA, 5 mM KCl, 1.5 mM CaCl2, pH=7.4; 5-HT2A: 50 mM Tris-HCl, 10 mM MgCl2, 1 mM EGTA, pH=7.4), homogenized with a Polytron for 20-30 sec at 12.000 rpm and adjusted to a final concentration of approximately 7.5 μg protein/well (D2, D3) and 15 μg protein/well (5-HT2A), respectively.
(§3) The binding affinity (Ki) of the compounds was determined using radioligand binding. Membranes were incubated in a total volume of 200 μl with a fixed concentration of radioligand (final concentration approximately 0.7 nM [^3H]-spiperone for D2, 0.5 nM [^3H]-spiperone for D3, and 1.1 nM [^3H]-ketanserin for 5-HT2A) and ten concentrations of test compound in ranging between 10 μM-0.1 nM for 1 h at RT. At the end of the incubation, the reaction mixtures were filtered on to unifilter 96-well white microplates with bonded GF/C filters (Packard BioScience, Zürich, Switzerland; preincubated for 1 h in 0.1% polyethylenimine (PEI) in assay buffer) with a Filtermate 196 harvester (Packard BioScience) and washed 3 times with cold assay buffer. The nonspecific binding was determined with equally composed reaction mixtures in the presence of 10 μM unlabelled spiperone. Per well 45 μl of Microscint 40 (Perkin Elmer, Schwerzenbach, Switzerland) was added, plates for sealed, shaken for 20 min and counted for 3 min on a Topcount Microplate Scintillation Counter (Can berra Packard S A, Zürich, Switzerland) with quenching correction.
(§4) The CPM value for each duplicate of a concentration of competing compound was averaged (y1), then the % specific binding was calculated according to the equation (((y1−non-specific)/(total binding−non-specific))×100). Graphs were plotted with the % specific binding using XLfit, a curve fitting program that iteratively plots the data using Levenberg-Marquardt algorithm. The single site competition analysis equation used was y=A+((B−A)/(1+((x/C)D))), where y is the % specific binding, A is the minimum y, B is the maximum y, C is the IC50, x is the log 10 of the concentration of the competing compound and D is the slope of the curve (the Hill Coefficient). […] The affinity constant (Ki) was calculated using the Cheng-Prusoff equation Ki=(IC50/1+([L]/Kd), where [L] is the concentration of radioligand and Kd is the dissociation constant of the radioligand at the receptor as determined by the saturation isotherm.

human D3 receptor = human D3 receptor (Homo sapiens, UniProt P35462); test: Radioligand binding to cloned human D3 receptor expressed in HEK-293 EBNA cells ([3H]-spiperone)
human 5-HT2A receptor = human 5-HT2A receptor (Homo sapiens, UniProt P28223); test: Radioligand binding to cloned human 5-HT2A receptor expressed in HEK-293 EBNA cells ([3H]-ketanserin)
Chain of human 5-HT2A receptor (P28223 whole entry): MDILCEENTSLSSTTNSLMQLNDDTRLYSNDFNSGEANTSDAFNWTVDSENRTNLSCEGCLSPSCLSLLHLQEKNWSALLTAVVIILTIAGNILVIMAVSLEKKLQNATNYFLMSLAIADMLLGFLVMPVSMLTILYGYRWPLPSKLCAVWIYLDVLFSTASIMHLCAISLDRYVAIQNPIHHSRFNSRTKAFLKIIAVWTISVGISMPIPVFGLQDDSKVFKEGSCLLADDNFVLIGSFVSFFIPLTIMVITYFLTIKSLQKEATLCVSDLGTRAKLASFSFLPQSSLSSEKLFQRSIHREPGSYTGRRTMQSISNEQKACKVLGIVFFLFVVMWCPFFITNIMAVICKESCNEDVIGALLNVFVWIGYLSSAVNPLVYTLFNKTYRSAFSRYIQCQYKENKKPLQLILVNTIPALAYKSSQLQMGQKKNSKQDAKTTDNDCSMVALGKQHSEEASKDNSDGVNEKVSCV
Description: as §1, §2, §3, §4

T1 sequence (P14416 whole entry): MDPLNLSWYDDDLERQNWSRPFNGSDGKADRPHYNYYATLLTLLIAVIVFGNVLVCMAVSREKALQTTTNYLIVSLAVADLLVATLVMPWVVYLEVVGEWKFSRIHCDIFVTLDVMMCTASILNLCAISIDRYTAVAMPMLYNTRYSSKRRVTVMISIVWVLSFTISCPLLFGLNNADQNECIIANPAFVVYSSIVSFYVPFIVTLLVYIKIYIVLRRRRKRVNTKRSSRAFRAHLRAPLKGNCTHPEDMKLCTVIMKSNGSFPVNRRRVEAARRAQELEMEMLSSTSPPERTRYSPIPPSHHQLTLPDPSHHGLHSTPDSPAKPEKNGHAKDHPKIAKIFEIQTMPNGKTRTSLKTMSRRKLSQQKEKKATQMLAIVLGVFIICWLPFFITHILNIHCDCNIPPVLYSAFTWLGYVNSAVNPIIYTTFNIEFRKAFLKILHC
Chain of human D3 receptor (P35462 whole entry): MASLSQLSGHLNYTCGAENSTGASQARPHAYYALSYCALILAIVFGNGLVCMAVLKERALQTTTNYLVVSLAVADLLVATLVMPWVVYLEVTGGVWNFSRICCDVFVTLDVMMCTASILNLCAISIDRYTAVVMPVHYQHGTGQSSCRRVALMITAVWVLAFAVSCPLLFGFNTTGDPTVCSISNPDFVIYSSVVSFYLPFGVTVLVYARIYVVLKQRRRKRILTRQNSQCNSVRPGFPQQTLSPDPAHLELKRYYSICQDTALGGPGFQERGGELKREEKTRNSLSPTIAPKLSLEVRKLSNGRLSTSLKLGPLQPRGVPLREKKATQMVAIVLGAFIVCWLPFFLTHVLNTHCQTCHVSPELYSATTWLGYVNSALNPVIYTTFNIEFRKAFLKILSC

| SMILES | melting point [°C] | Ki (human D2 receptor) [nM] | Ki (human D3 receptor) [nM] | Ki (human 5-HT2A receptor) [nM] |
| --- | --- | --- | --- | --- |
| O=C(N[C@H]1CC[C@H](CCN2CCN(c3nccc4c3OCC4)CC2)CC1)c1ccc(-n2cccn2)cc1 [Example 65, trans-N-(4-{2-[4-(2,3-Dihydro-furo[2,3-c]pyridin-7-yl)-piperazin-1-yl]-ethyl}-cyclohexyl)-4-pyrazol-1-yl-benzamide] | 225.5 | 502 | 11.1 | 29.2 |
| O=CN[C@H]1CC[C@H](CCN2CCN(c3nccc4c3OCC4)CC2)CC1 [Example 53, trans-N-(4-{2-[4-(2,3-Dihydro-furo[2,3-c]pyridin-7-yl)-piperazin-1-yl]-ethyl}-cyclohexyl)-formamide] | 153.5 | 1110 | 23.1 | 70.2 |
| O=C(CC(F)(F)F)N[C@H]1CC[C@H](CCN2CCN(c3nccc4c3OCC4)CC2)CC1 [Example 33, trans-N-(4-{2-[4-(2,3-Dihydro-furo[2,3-c]pyridin-7-yl)-piperazin-1-yl]-ethyl}-cyclohexyl)-3,3,3-trifluoro-propionamide] | 216.5 | 276 | 4.29 | 44.2 |
| C/C=C/CC(=O)N[C@H]1CC[C@H](CCN2CCN(c3nccc4c3OCC4)CC2)CC1 [Example 87, (E)-Pent-3-enoic acid trans-(4-{2-[4-(2,3-dihydro-furo[2,3-c]pyridin-7-yl)-piperazin-1-yl]-ethyl}-cyclohexyl)-amide] | 170 | 939 | 6.64 | 73.6 |
| O=C(N[C@H]1CC[C@H](CCN2CCN(c3nccc4c3OCC4)CC2)CC1)c1ccc2c(c1)OCO2 [Example 60, Benzo[1,3]dioxole-5-carboxylic acid trans-(4-{2-[4-(2,3-dihydro-furo[2,3-c]pyridin-7-yl)-piperazin-1-yl]-ethyl}-cyclohexyl)-amide] | 213.5 | 348 | 7.32 | 23 |
| COC(CCC(=O)N[C@H]1CC[C@H](CCN2CCN(c3nccc4c3OCC4)CC2)CC1)OC [Example 63, trans-N-(4-{2-[4-(2,3-Dihydro-furo[2,3-c]pyridin-7-yl)-piperazin-1-yl]-ethyl}-cyclohexyl)-4,4-dimethoxy-butyramide] | 204.5 | 1920 | 22.1 | 35.3 |
| O=C(Cc1noc2ccccc12)N[C@H]1CC[C@H](CCN2CCN(c3nccc4c3OCC4)CC2)CC1 [Example 75, trans-2-Benzo[d]isoxazol-3-yl-N-(4-{2-[4-(2,3-dihydro-furo[2,3-c]pyridin-7-yl)-piperazin-1-yl]-ethyl}-cyclohexyl)-acetamide] | 211 | 628 | 6.28 | 45.7 |
| O=C(CC1(O)CCC1)N[C@H]1CC[C@H](CCN2CCN(c3nccc4c3OCC4)CC2)CC1 [Example 102, trans-N-(4-{2-[4-(2,3-Dihydro-furo[2,3-c]pyridin-7-yl)-piperazin-1-yl]-ethyl}-cyclohexyl)-2-(1-hydroxy-cyclobutyl)-acetamide] | 155 | 478 | 11.8 | 50.6 |
| O=C(CC1CCC1)N[C@H]1CC[C@H](CCN2CCN(c3nccc4c3OCC4)CC2)CC1 [Example 25, trans-2-Cyclobutyl-N-(4-{2-[4-(2,3-dihydro-furo[2,3-c]pyridin-7-yl)-piperazin-1-yl]-ethyl}-cyclohexyl)-acetamide] | 147.5 | 531 | 5.78 | 36.9 |
| Cc1cc(C(=O)N[C@H]2CC[C@H](CCN3CCN(c4nccc5c4OCC5)CC3)CC2)on1 [Example 61, 3-Methyl-isoxazole-5-carboxylic acid trans-(4-{2-[4-(2,3-dihydro-furo[2,3-c]pyridin-7-yl)-piperazin-1-yl]-ethyl}-cyclohexyl)-amide] | 199 | 488 | 26.1 | 48.6 |
| O=C(CC1CCCO1)N[C@H]1CC[C@H](CCN2CCN(c3nccc4c3OCC4)CC2)CC1 (mixture of isomers) [Example 29, trans-N-(4-{2-[4-(2,3-Dihydro-furo[2,3-c]pyridin-7-yl)-piperazin-1-yl]-ethyl}-cyclohexyl)-2-rac-(tetrahydro-furan-2-yl)-acetamide] | 173.5 | 354 | 9.31 | 45.2 |
| O=C(C[C@@H]1COCCO1)N[C@H]1CC[C@H](CCN2CCN(c3nccc4c3OCC4)CC2)CC1 [Example 35, trans-N-(4-{2-[4-(2,3-Dihydro-furo[2,3-c]pyridin-7-yl)-piperazin-1-yl]-ethyl}-cyclohexyl)-2-(R)-[1,4]dioxan-2-yl-acetamide] | 181 | 384 | 8.28 | 36.1 |
| Cc1ccc(C(=O)N[C@H]2CC[C@H](CCN3CCN(c4nccc5c4OCC5)CC3)CC2)cn1 [Example 69, trans-N-(4-{2-[4-(2,3-Dihydro-furo[2,3-c]pyridin-7-yl)-piperazin-1-yl]-ethyl}-cyclohexyl)-6-methyl-nicotinamide] | 204 | 597 | 17.3 | 25.2 |
| CS(=O)(=O)CC(=O)N[C@H]1CC[C@H](CCN2CCN(c3nccc4ccoc34)CC2)CC1 [Example 17, trans-N-{4-[2-(4-Furo[2,3-c]pyridin-7-yl-piperazin-1-yl)-ethyl]-cyclohexyl}-2-methanesulfonyl-acetamide] | 182 | 576 | 4.26 | 10.9 |
| CC[C@H](O)CC(=O)N[C@H]1CC[C@H](CCN2CCN(c3nccc4c3OCC4)CC2)CC1 [Example 48, trans-(S)-3-Hydroxy-pentanoic acid (4-{2-[4-(2,3-dihydro-furo[2,3-c]pyridin-7-yl)-piperazin-1-yl]-ethyl}-cyclohexyl)-amide] | 217 | 1090 | 18.2 | 56.8 |
| O=C(N[C@H]1CC[C@H](CCN2CCN(c3nccc4c3OCC4)CC2)CC1)c1ccc2ncccc2c1 [Example 77, Quinoline-6-carboxylic acid trans-(4-{2-[4-(2,3-dihydro-furo[2,3-c]pyridin-7-yl)-piperazin-1-yl]-ethyl}-cyclohexyl)-amide] | 211.5 | 432 | 9.44 | 35.4 |
| O=C(N[C@H]1CC[C@H](CCN2CCN(c3nccc4c3OCC4)CC2)CC1)c1ccccc1 [Example 22, trans-N-(4-{2-[4-(2,3-Dihydro-furo[2,3-c]pyridin-7-yl)-piperazin-1-yl]-ethyl}-cyclohexyl)-benzamide] | 221 | 247 | 3.34 | 14.7 |
| C[C@]1(O)CC[C@H](C(=O)N[C@H]2CC[C@H](CCN3CCN(c4nccc5c4OCC5)CC3)CC2)CC1 [Example 91, trans-4-Hydroxy-4-methyl-cyclohexanecarboxylic acid trans-(4-{2-[4-(2,3-dihydro-furo[2,3-c]pyridin-7-yl)-piperazin-1-yl]-ethyl}-cyclohexyl)-amide] | 172.5 | 481 | 18.6 | 32 |
